Assay results reported in publication PMC4742278, “BS69/ZMYND11 C-Terminal Domains Bind and Inhibit EBNA2” (PLoS Pathogens, 2016).
Numbering of substitutions follows the chain as printed. Ends that are not written are not given here.

How the values were obtained:
[1] = system: BS69MYND Q546A; test: ITC binding to BS69MYND Q546A; design: species or system mouse
Text: (§1) The DNA sequence encoding residues 440–562 (BS69CC-MYND) of mouse BS69/ZMYND11 was inserted into a modified PRSF-duet vector (Novagen), in which the BS69 fragments are separated from the preceding His6-SUMO tag by a ubiquitin-like protein (ULP1) cleavage site; and the DNA sequence encoding BS69 516–562 (BS69MYND) was inserted into a pGEX-6P-1 vector (GE Healthcare), preceded by a GST tag and a PreScission protease cleavage site. Note that the amino acid sequences of both fragments are identical to the corresponding regions of human BS69. The BS69MYND mutants were constructed by site-directed mutagenesis and confirmed by DNA sequencing. The plasmid was then transformed into BL21 (DE3) RIL cell strain for overexpression. The bacterial cells were grown at 37°C and induced by 0.4 mM isopropyl β-d-1-thiogalactopyranoside (IPTG) when the cells density reached an optical density (OD600) of 0.6. After induction, the cells continued to grow at 20°C for overnight. […]
(§2) The EBNA2_381–389 peptide with an additional Gly-Tyr dipeptide at the C-terminus (NH2-SMPSLEPVLGY-CONH2), the EBNA2_435–445 peptide, and the EBNA2_381–445 peptide were used for ITC assays. […] The ITC data was analyzed with the Origin 7.0 software using a one-site fitting model.

[2] = system: BS69CC-MYND Q546A; test: ITC binding to BS69CC-MYND Q546A; design: species or system mouse; conditions: S1D Fig; ITC parameters could not be reliably determined
Text: as §1, §2

[3] = system: BS69CC-MYND Q546A/W550A; test: ITC binding to BS69CC-MYND Q546A/W550A; design: species or system mouse; conditions: S1E Fig; ITC parameters could not be reliably determined
Text: as §1, §2

[4] = target: T1, BS69CC-MYND (Mus musculus, UniProt Q8R5C8); test: ITC binding to BS69CC-MYND wild type; conditions: EBNA2_435–445, peptide titrated into BS69CC-MYND, 5°C, 20 mM Tris-HCl pH 7.5, 100 mM NaCl, 2 mM DTT, one-site fitting, read-out: dissociation constant (K d)
T1 construct: His6-SUMO (N, cleaved yes); made in house; host or cells: E. coli BL21 (DE3) RIL
T1 sequence (Q8R5C8 480-602): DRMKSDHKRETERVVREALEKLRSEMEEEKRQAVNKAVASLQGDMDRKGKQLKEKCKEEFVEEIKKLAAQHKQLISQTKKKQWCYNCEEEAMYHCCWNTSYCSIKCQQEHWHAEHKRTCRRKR
Text: as §1, §2

[5] = target: T2, BS69MYND (Mus musculus, UniProt Q8R5C8); test: ITC binding to BS69MYND wild type; conditions: EBNA2_435–445, peptide titrated into BS69MYND, 5°C, 20 mM Tris-HCl pH 7.5, 100 mM NaCl, 2 mM DTT, one-site fitting, read-out: dissociation constant (K d)
T2 construct: GST (N, cleaved yes); made in house; host or cells: E. coli BL21 (DE3) RIL
T2 sequence (Q8R5C8 556-602): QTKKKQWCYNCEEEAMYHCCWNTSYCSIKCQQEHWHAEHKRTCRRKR
Text: as §1, §2

[6] = target: T3, BS69MYND Y532A (Mus musculus, UniProt Q8R5C8, Y572A); test: ITC binding to BS69MYND Y532A; conditions: versus BS69MYND wild type
T3 construct: GST (N, cleaved yes); made in house; host or cells: E. coli BL21 (DE3) RIL
T3 sequence (Q8R5C8 556-602 Y572A): T2 sequence (Q8R5C8 556-602) with Y17A
Text: as §1, §2

[7] = target: T4, BS69MYND R560A (Mus musculus, UniProt Q8R5C8, R600A); test: ITC binding to BS69MYND R560A; conditions: versus BS69MYND wild type
T4 construct: GST (N, cleaved yes); made in house; host or cells: E. coli BL21 (DE3) RIL
T4 sequence (Q8R5C8 556-602 R600A): T2 sequence (Q8R5C8 556-602) with R45A
Text: as §1, §2

[8] = system: BS69MYND W550A; test: ITC binding to BS69MYND W550A; design: species or system mouse; conditions: mutation W550A, EBNA2_381–389 peptide used with additional C-terminal Gly-Tyr
Text: as §1, §2

Substance | effect of Q546A on binding affinity of BS69MYND-EBNA2_435–445 complex ([1]; BS69MYND Q546A) | ITC heat measurements with BS69CC-MYND Q546A [2] | ITC heat measurements with BS69CC-MYND Q546A/W550A [3] | Kd [4] [µM] | Kd [5] [µM] | interaction with BS69MYND Q546A ([1]; mutation Q546A, EBNA2_381–389 peptide used with additional C-terminal Gly-Tyr) | decrease of BS69MYND-EBNA2_381–389 binding by mutation Y532A [6] | decrease of BS69MYND-EBNA2_381–389 binding by mutation R560A [7] [fold] | interaction with BS69MYND W550A [8]
EAPILFPDDWY-NH2 [EBNA2_435–445] | substantially decreases | significantly lower than those of Fig 2H | significantly lower than those of Fig 2H | 34.9 | 93.4 | – | – | – | –
H-SMPSLEPVLGY-NH2 [EBNA2_381–389] | – | – | – | – | – | largely abolished the interaction | about 3 fold | ~10 | largely abolished the interaction
